Reference: US20060084672A1, “Method for modification of y-secretase activity through inhibition of Fkbp13” (The Hospital for Sick Children, priority 2004, published 2006)

Key:
APH-1 = APH-1 protein levels in transfected Drosophilia S2 cells (Western analysis); type: cell-based; conditions: 50 μM FK506 over a 24 hour period
Description: (§1) In order to determine if Fkbp13 can also affect the stability of other components of the γ-secretase complex, Drosophilia S2 cells were transfected with tagged constructs expressing APH-1, PEN-2 or Nct and then examined for the effects of FK506 on protein levels.
(§2) cDNA's encoding APH-1, PEN-2 and Nct were subcloned into pAc5.1/V5-HisA or pIB/V5-His TOPO and transiently transfected into Drosophilia S2 cells using cellfectin according to the manufacturer's protocol (Invitrogen). Cells were collected between 24-48 hours for Western analysis using the following antibodies: monoclonal anti-V5 1:5000(Invitrogen), monoclonal anti-HA 1:2000(Roche), monoclonal anti-FLAG M2 1:5000(Sigma) and monoclonal anti-β-tubulin 1:1000 (DSHB).
(§3) In contrast, no effect was observed on the levels of either APH-1 or Nct (FIG. 4A). […] Drosophilia S2 cells were transfected with tagged versions of APH-1, PEN-2 or Nct and treated with 50 μM FK506 over a 24 hour period. No effect was observed on the levels of APH-1, Nct or β-tubulin control. Similarly, no effect was observed using either DMSO (control) or the known γ-secretase inhibitor, DAPT.

Fkbp13 = Fkbp13 levels in HEK293 cells transfected with Fkbp13 and Psn (Western blot); type: cell-based, Drosophila; conditions: treated for 1-24 hours
Experimental: HEK293 cells were maintained at 37° C. and 5% CO2 in α-minimal essential medium (Hyclone) supplemented with 10% heat-inactivated fetal bovine serum and plated 24 hours before transfection. For each 10 cm tissue culture dish, 12-16 μg cDNA was used. HEK293 cells were transiently transfected with plasmids encoding Drosophila Rya-r44f, Fkbp13, or psn using calcium phosphate precipitation. The cells were harvested 40-42 hours afer transfection.
Protein quantification, SDS-polyacrylamide gel electrophoresis (5-12% or 8-12% gradient gel, or 10% SDS-PAGE) and immunoblot analysis were carried out as described previously (Guo et al. Journal of Cell Science 113:3499-3508 2000) using the monoclonal antibodies, anti-β-actin and anti-FLAG (Sigma), anti-GFP (Santa Cruz Biotechnology), anti-HA (12c-A5, Roche), anti-β-tubulin (Developmental Studies Hybridoma Bank), anti-Xpress and anti-V5 (Invitrogen) and a polyclonal anti-GFP (Santa Cruz Biotechnology). Microsomal fractions were prepared from cells using a detergent-free protocol. […]
(§4) To determine the effect of drug treatment on Psn stability, HEK293 cells were transiently co-transfected with psn and Fkbp13 constructs. 24 hours after transfection, 100 mm dishes of transfected HEK293 cells were treated with 5 μM FK506 (CALBIOCHEM), 1 μM Rapamycin (CALBIOCHEM) or DMSO (control), harvested at various time points and analyzed by Western blotting techniques. […]

γ-secretase = molecular target: T1, γ-secretase (Homo sapiens, UniProt P49768); experiment: Aβ1-40 sandwich ELISA in Cos-7 cells stably expressing APP C99 and transfected with human PS1; type: cell-based
T1 construct: expressed in transfected cells; host or cells: Cos-7 stably expressing APP C99 (pCEP4-SPA4CT-DA)
Experimental: To determine the effect of drug treatment on Psn stability, HEK293 cells were transiently co-transfected with psn and Fkbp13 constructs. 24 hours after transfection, 100 mm dishes of transfected HEK293 cells were treated with 5 μM FK506 (CALBIOCHEM), 1 μM Rapamycin (CALBIOCHEM) or DMSO (control), harvested at various time points and analyzed by Western blotting techniques. To measure Aβ40, Cos-7 cells were transfected with pCEP4-SPA4CT-DA (gift from Dr. Gunter Merdes, ZMBH, University of Heidelberg) that contains an APP^C99 cDNA using lipofectin (Gibco) according to the manufacturers protocol. Cells stably expressing APP^C99 were selected using 300 μg/ml hygromycin and maintained in DMEM medium containing 10% FBS, […] penicillin-streptomycin and 100 μg/ml hygromycin. These cells were then transiently transfected with plasmids carrying human PS1. 48 hours after transfection, cells were starved in serum-free DMEM medium for 2 hours, then treated with 1 μm of the γ-secretase inhibitor DAPT or 0.5 μm of the Fkbp13 inhibitor rapamycin or FK506 respectively, in DMEM medium containing 5% FBS o/n. Cells then were harvested and lysed and the conditioned lysates were used to measure Aβ1-40 by sandwich ELISA as described in (Yan et al. Nature 402:533-537 1999)using 6E10 (Senetek) as the capture antibody and the polyclonal Pan-β-Amyloid (Oncogene) for detection of Aβ40. […]

Nct = Nct protein levels in transfected Drosophilia S2 cells (Western analysis); type: cell-based; conditions: 50 μM FK506 over a 24 hour period
Description: as §1, §2, §3

human PS-1 = experiment: 35S-methionine pulse-chase of PS1 stability in Cos-7 cells; type: cell-based; conditions: Cos-7 cells transfected with human PS-1, in the presence of FK506; without FK506 3.5±0.2 h
Experimental: In order to confirm that FK506 was affecting the stability of PS1 a pulse-chase of ^35S-methionine was performed and the amount of PS1 remaining after various chase periods was measured by immunoprecipitation and autoradiography.
Pulse-chase labeling of cells was performed using TRAN ^35S-LABEL™ Metabolic Labeling Reagent (ICN). Cos-7 cells were transiently transfected with human PS-1. After 48 hours, cells were washed with PBS and then starved in the presence of methionine and cysteine free DMEM (Invitrogen) containing 10% dialyzed fetal bovine serum for 1 hour at 37° C. Cells were then incubated with [^35S] methionine (400 μCi/ml) in the presence or absence of FK506 for an additional 2 hours. The cells were then washed with 10 ml of PBS twice and chased with DMEM containing the indicated reagents for various times. Cells were then harvested and lysed in IP buffer and TCA precipitated to quantify the incorporation of ^35S-methionine. Equal amounts of microsomal fractions from radioactive cells were then incubated with 2 μg of anti-human PS1. Subsequently, […] of protein A agarose beads (Invitrogen) were added to the IP reactions and rotated for 2 hours at 4° C. The beads were then washed 4 times with IP washing buffer, denatured in 2× SDS-PAGE sample buffer and run on 12% SDS-PAGE.

Actin = Actin levels in HEK293 cells transfected with Fkbp13 and Psn (Western blot); type: cell-based; conditions: treated for 1-24 hours
Experimental: Protein quantification, SDS-polyacrylamide gel electrophoresis (5-12% or 8-12% gradient gel, or 10% SDS-PAGE) and immunoblot analysis were carried out as described previously (Guo et al. Journal of Cell Science 113:3499-3508 2000) using the monoclonal antibodies, anti-β-actin and anti-FLAG (Sigma), anti-GFP (Santa Cruz Biotechnology), anti-HA (12c-A5, Roche), anti-β-tubulin (Developmental Studies Hybridoma Bank), anti-Xpress and anti-V5 (Invitrogen) and a polyclonal anti-GFP (Santa Cruz Biotechnology). Microsomal fractions were prepared from cells using a detergent-free protocol. All steps were performed at <4° C. Cell pellets were resuspended in 300 μl hypo-osmotic buffer (20 mM Tris/HCl, pH 7.5) supplemented with complete protease inhibitor (Roche), homogenized through a 27G needle and sonicated. Nuclei were removed by centrifugation (1200 g, 25 minutes) and the post-nuclear supernatant (containing membrane and soluble fractions) was denatured for 5 minutes at 100° C. in SDS-PAGE sample buffer. […]
as §4

PEN-2 = PEN-2 protein levels in transfected Drosophilia S2 cells (Western analysis); type: cell-based; conditions: concentration not given
Description: as §1, §2, §3

C=CC[C@@H]1/C=C(\C)C[C@H](C)C[C@H](OC)[C@H]2O[C@@](O)(C(=O)C(=O)N3CCCC[C@H]3C(=O)O[C@H](/C(C)=C/[C@@H]3CC[C@@H](O)[C@H](OC)C3)[C@H](C)[C@@H](O)CC1=O)[C@H](C)C[C@@H]2OC [FK506]
levels of APH-1 (APH-1): no effect | levels of Fkbp13 (Fkbp13): no effect | decrease in the levels of β-amyloid peptide (γ-secretase; APP C99 + human PS1, 0.5 μm FK506 o/n, vs untreated or DMSO treated controls): 80% | levels of Nct (Nct): no effect | PS1 half-life (human PS-1): 1.25 ± 0.3 h | levels of Actin (Actin): no effect

C[C@H](NC(=O)Cc1cc(F)cc(F)c1)C(=O)N[C@H](C(=O)OC(C)(C)C)c1ccccc1 [DAPT]
β-amyloid peptide production (in words) (γ-secretase; APP C99 + human PS1, 1 μm DAPT or 0.5 μm rapamycin o/n): comparable | effect of DAPT on protein levels (PEN-2) in S2 cells (PEN-2): no effect
